The target of test [1] is human cN-IIIA (Homo sapiens, UniProt Q9H0P0). In words: IC50 determination for cN-IIIA (MGP assay). To be noted: for IC50: m7GMP 100 µM, cN-IIIA 40 nM, 25 min, MGP assay. The format is biochemical. The method, then:
To determine the inhibitory potency towards cN-IIIA, compounds were evaluated using the MGP assay in an analogous way as described above for cN-IIIB.
All experiments were performed in triplicate.

Test [2] deals with mouse eIF4E (Mus musculus, UniProt P63073). In words: eIF4E competition binding assay with pyrene-labelled fluorescent probe. To be noted: for EC50: mouse eIF4E 400 nM, pyrene-labelled probe 75 nM.
Sequence of mouse eIF4E (P63073 whole entry, canonical isoform): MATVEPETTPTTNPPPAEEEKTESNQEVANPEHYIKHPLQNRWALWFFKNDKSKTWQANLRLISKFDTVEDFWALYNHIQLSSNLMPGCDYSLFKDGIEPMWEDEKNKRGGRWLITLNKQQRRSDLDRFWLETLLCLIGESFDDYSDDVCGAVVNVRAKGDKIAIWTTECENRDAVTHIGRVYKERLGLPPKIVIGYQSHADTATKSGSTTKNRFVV
For test [3], the system named is endogenous cN-IIIB, m^7GMP dephosphorylation in cytoplasmic HEK 293T cell extracts. In words: m7GMP decay in HEK 293T cell extract in presence of inhibitors (LC–MS/MS). The format is biochemical, human. Conditions: compound 100 µM, [2H]-m7GMP 4 µM, 37 °C, up to 60 min. As for the experimental part: The expression of cN-IIIB was verified by Western blot and was the most abundant in HEK 293T among four tested cell lines (Figure 9A). The cN-IIIA isoform was likewise abundantly expressed in the HEK cell line. The stability and activity of the inhibitors were tested in HEK 293T cell extracts using mass spectrometry analysis. The evaluated set of compounds contained some of the identified cN-IIIB inhibitors: 4, 5, 5a, and 5d of varying inhibitory potencies as well as compound S16 with no inhibitory potency (negative control). Initially, we verified the stability of the compounds in the extracts. The LC–MS/MS analyses confirmed that all analyzed compounds were stable in the lysate for at least 60 min (Figure 9B). Then, we monitored the time-dependent degradation of heavy m^7GMP, deuterated within the methyl group ([^2H]-m^7GMP]) in the extracts, in the presence or absence of the evaluated compounds (100 µM each, Figure 9C).
A typical reaction contained 1 µL–40 µM (final concentrations 4 µM) of [^2H]m^7GMP and 9 µL cell extracts. […]
Chromatographic separation of nucleotides and their metabolites was achieved on a ZORBAX Eclipse Plus C18 analytical column (3.5 μm, 4.6 mm × 100 mm, Agilent) equipped with Eclipse Plus-C18 analytical guard column (5.0 μm, 4.6 × 12.5 mm). […] Then, the analytes in the HPLC eluate were monitored by MS in multiple reaction monitoring (MRM) mode. […]

Consider `Nc1nc2c(c(=O)[nH]1)[n+](Cc1ccccc1)cn2[C@@H]1O[C@H](COP(=O)([O-])O)[C@@H](O)[C@H]1O` [Compound 5], for which inhibition in test [1] was half-maximal at 113 ± 38.5 µM (IC50).

As for `Cc1cccc(C[n+]2cn([C@@H]3O[C@H](COP(=O)([O-])O)[C@@H](O)[C@H]3O)c3nc(N)[nH]c(=O)c32)c1` [Compound 5a], the IC50 – broadly, the concentration at which inhibition is half-maximal – in test [1] was found to be 127 ± 35.6 µM. Besides, the 50% effective concentration (EC50) (commonly the concentration that produces a half-maximal response) in test [2] came out at 22.6 ± 4.3 µM.

`Nc1nc2c(c(=O)[nH]1)[n+](Cc1ccc(F)c(F)c1)cn2C1OC(COP(=O)([O-])O)C(O)C1O` (centres unmarked) [Compound 5d] gave an IC50 in test [1] of 106 ± 26.6 µM. The compound further yielded a concentration for a half-maximal effect (EC50) in test [2] of 39.9 ± 8.5 µM.

`Nc1nc2c(c(=O)[nH]1)[n+](Cc1ccc(C(F)(F)F)cc1)cn2[C@@H]1O[C@H](COP(=O)([O-])O)[C@@H](O)[C@H]1O` [Compound 5g, 7-(4-Trifluoromethylbenzyl)guanosine 5’-Monophosphate] registered an IC50 in test [1] of 42.5 ± 8.3 µM. Further, the “SI (cN-IIIB/cN-IIIA)” value in test [1] (ratio of IC50 for cN-IIIB and IC50 for cN-IIIA) is given as 0.17. The “Affinity to eIF4E compared to m7GMP” value in test [2] (comparison of EC50 values) was “at least two-fold lower affinity”. Further, in test [2], the EC50 stood at 118 ± 66.4 µM. In addition, in test [2] (ratio of IC50 for cN-IIIB and EC50 for eIF4E), the “SI (cN-IIIB/eIF4E)” value is listed as 0.06.

In the case of `C[n+]1cn([C@@H]2O[C@H](Cn3cc(CCP(=O)([O-])O)nn3)[C@@H](O)[C@H]2O)c2nc(N)[nH]c(=O)c21` [Compound S16], the “Inhibition of m7GMP decay in HEK 293T cell extract (in words)” value in test [3] is reported as “almost complete decay of m^7GMP was observed within the first 50 min”.

The record behind these values is PMC9144445, “Substrate-Based Design of Cytosolic Nucleotidase IIIB Inhibitors and Structural Insights into Inhibition Mechanism” (Pharmaceuticals, 2022).
